According to patent US20210379035A1, “Methods Of Treating Fabry Patients Having Renal Impairment” (Amicus Therapeutics, Inc., priority 2017, published 2021):

Legend:
[1] = test system: Fabry patients; experiment: eGFR (MDRD) in Fabry patient P1; assay type: in vivo, human; conditions: P1 on migalastat, moderate impairment
Procedure: (§1) Thus, two Fabry patients with renal impairment were evaluated. One patient (P1) had moderate renal impairment, while the other patient (P2) had severe renal impairment. […] The comparison with the results from the ERT-naïve study allows for comparison of PK in the Fabry population with mostly normal, but some mild and a few moderately impaired Fabry patients. None of the patients in the ERT-naïve study had severe renal impairment because these patients were excluded from the study.

[2] = test system: α-Gal A; experiment: ERT-experienced study: WBC α-Gal A activity; assay type: in vivo, human; conditions: Migalastat 0-18 months
Procedure: (§2) One study was a 24-month trial, including a 6-month double-blind, placebo-controlled period, in 67 ERT-naïve patients. The other study was an active-controlled, 18-month trial in 57 ERT-experienced patients with a 12-month open-label extension (OLE). Both the ERT-naïve and ERT-experienced studies included Fabry patients having an eGFR of ≥30 mL/min/1.73 m^2.
(§3) A further analysis of data from these studies examined annualized change in eGFRCKD-EPI, LVMi, WBC α-Gal A activity and plasma lyso-Gb3 levels based on renal function at baseline.

[3] = Additional simulations on renal impairment subjects (Example 4); design: species or system human; conditions: simulation
[4] = test system: Fabry patients; experiment: ERT-experienced study: renal function (eGFR, mGFR); assay type: in vivo, human; conditions: for Annualized Change in eGFRCKD-EPI, mean ± SE: ERT-Experienced, Migalastat 0-18 months; for mean annualized rate of change of eGFRCKD-EPI / mean annualized rate of change mGFRiohexol / mean±SE annualized rate of change of eGFRCKD-EPI: ERT-experienced study; for mean annualized rate of change of eGFRCKD-EPI: baseline to 18 months (FIG. 12A); for mean annualized rate of change mGFRiohexol: baseline to 18 months (FIG. 12B); for mean±SE annualized rate of change of eGFRCKD-EPI: baseline to 18 months (FIG. 13)
Procedure: One study was a 24-month trial, including a 6-month double-blind, placebo-controlled period, in 67 ERT-naïve patients. The other study was an active-controlled, 18-month trial in 57 ERT-experienced patients with a 12-month open-label extension (OLE). Both the ERT-naïve and ERT-experienced studies included Fabry patients having an eGFR of ≥30 mL/min/1.73 m^2. […] Annualized change in eGFR using the Modification of Diet in Renal Disease ([…]) was also calculated. […] Although the number of patients with moderate renal impairment included in this analysis is two (compared to three for the ERT-naïve study), the data supports the efficacy of migalastat when administered to patients with some form of renal impairment. A further analysis of data from these studies examined annualized change in […], WBC α-Gal A activity and plasma lyso-Gb3 levels based on renal function at baseline. The results for each renal subgroup are shown in Table 9 below, with the ERT-naïve study subgroups based on […] and the ERT-experienced study subgroups based on mGFRiohexol.

[5] = test system: α-Gal A; experiment: ERT-naïve study: WBC α-Gal A activity; assay type: in vivo, human
Procedure: as §2, §3

[6] = test system: GL-3 inclusions per kidney interstitial capillary; experiment: ERT-naïve study: kidney interstitial capillary GL-3 inclusions; assay type: in vivo, human
Procedure: In the ERT-naïve study, the primary efficacy parameter was GL-3 inclusions per kidney interstitial capillary. Renal function was also evaluated by mGFRiohexol, eGFRCKD-EPI and eGFRMDRD.

[7] = target: T1, α-Gal A (Homo sapiens, UniProt P06280); conditions: selective and reversible binding; cited from earlier work
T1 sequence (P06280 32-429): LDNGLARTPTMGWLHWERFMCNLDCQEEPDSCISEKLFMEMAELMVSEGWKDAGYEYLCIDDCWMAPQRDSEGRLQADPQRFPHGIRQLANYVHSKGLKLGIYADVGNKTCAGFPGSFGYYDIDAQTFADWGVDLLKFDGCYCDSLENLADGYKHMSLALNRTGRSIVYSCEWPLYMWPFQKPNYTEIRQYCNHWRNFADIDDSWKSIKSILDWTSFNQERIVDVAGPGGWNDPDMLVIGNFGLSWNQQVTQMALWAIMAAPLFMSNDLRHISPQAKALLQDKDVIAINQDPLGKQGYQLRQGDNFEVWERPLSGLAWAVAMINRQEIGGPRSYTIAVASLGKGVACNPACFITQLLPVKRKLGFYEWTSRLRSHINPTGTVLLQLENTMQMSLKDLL

[8] = test system: Fabry patients; experiment: ERT-naïve study: LVMi; assay type: in vivo, human
Procedure: as §2
(§4) A further analysis of data from these studies examined annualized change in eGFRCKD-EPI, LVMi, WBC α-Gal A activity and plasma lyso-Gb3 levels based on renal function at baseline. The results for each renal subgroup are shown in Table 9 below, with the ERT-naïve study subgroups based on eGFRMDRD and the ERT-experienced study subgroups based on mGFRiohexol.

[9] = test system: plasma lyso-GB3; experiment: ERT-experienced study: plasma lyso-Gb3; assay type: in vivo, human; conditions: Migalastat 0-18 months
Procedure: as §2, §4

[10] = ERT-naïve study population PK from sparse blood sampling; assay type: in vivo, human; conditions: ERT-naïve Fabry patients
Procedure: as §1

[11] = test system: Fabry patients; experiment: Analysis of 52 ERT-naive patients by baseline proteinuria: eGFR; assay type: in vivo, human; conditions: for Annualized eGFRCKD-EPI Change Rate, Mean (SE): ERT-naive, migalastat HCl 150 mg QOD ≥17 months; for Annualized eGFR Rate of Change (eGFRMDRD), Mean (SEM): Migalastat cohort
Procedure: Another analysis was performed on patients who participated in multiple studies for the use of migalastat. […] Results for […] were compared with changes in […] reported in the literature for untreated patients with Fabry disease (natural history cohort; Schiffmann R et al. Nephrol Dial Transplant. 2009; 24:2102-11) and are shown in Table 15 below: […]

[12] = test system: Fabry patients; experiment: ERT-experienced study: LVMi; assay type: in vivo, human; conditions: Migalastat 0-18 months
Procedure: as §2, §4

[13] = mild or moderate renal impairment
[14] = Migalastat→Migalastat 0-24 months, renal subgroup 30 to < 60
[15] = Migalastat→Migalastat 0-24 months, renal subgroup ≥60
[16] = Placebo→Migalastat 6-24 months, renal subgroup 30 to < 60
[17] = Placebo→Migalastat 6-24 months, renal subgroup ≥60
[18] = Females, baseline urine protein 100-1000 mg/24 h
[19] = Females, baseline urine protein <100 mg/24 h
[20] = Females, baseline urine protein >1000 mg/24 h
[21] = Males, baseline urine protein 100-1000 mg/24 h
[22] = Males, baseline urine protein <100 mg/24 h
[23] = Males, baseline urine protein >1000 mg/24 h

OC[C@H]1NC[C@H](O)[C@@H](O)[C@H]1O [migalastat, (2R,3S,4R,5S)-2-(hydroxymethyl) piperdine-3,4,5-triol]
eGFRMDRD [1]: 32 mL/min | WBC α-Gal A Activity (males only), change from baseline, mean ± SE ([2]; renal subgroup 30 to < 60): +4.6 ± 2.3 4MU/hr/mg | WBC α-Gal A Activity (males only), change from baseline, mean ± SE ([2]; renal subgroup ≥60): +5.5 ± 1.4 4MU/hr/mg | AUC Ratio ([3]; Mild (>=60-<90) vs Normal): 1.2 | AUC Ratio ([3]; Moderate (>=30-<60) vs Normal): 1.9 | AUC Ratio ([3]; Severe (<30) vs Normal): 4.8 | Annualized Change in eGFRCKD-EPI, mean ± SE ([4]; renal subgroup 30 to < 60): −4.2 ± 2.7 mL/min/1.73 m^2 | Annualized Change in eGFRCKD-EPI, mean ± SE ([4]; renal subgroup ≥60): −0.4 ± 0.8 mL/min/1.73 m^2 | mean annualized rate of change of eGFRCKD-EPI [4, 13]: −3.33 mL/min/1.73 m^2/year | mean annualized rate of change of eGFRCKD-EPI ([4]; normal renal function): −0.4 mL/min/1.73 m^2/year | mean annualized rate of change mGFRiohexol [4, 13]: −3.51 mL/min/1.73 m^2/year | mean annualized rate of change mGFRiohexol ([4]; normal renal function): −4.35 mL/min/1.73 m^2/year | mean±SE annualized rate of change of eGFRCKD-EPI ([4]; mild renal impairment): −0.2±1.25 mL/min/1.73 m^2/year | mean±SE annualized rate of change of eGFRCKD-EPI ([4]; moderate renal impairment): −4.5±2.68 mL/min/1.73 m^2/year | mean±SE annualized rate of change of eGFRCKD-EPI ([4]; normal renal function): −2.0±0.57 mL/min/1.73 m^2/year | WBC α-Gal A Activity (males only), change from baseline [5, 14]: +1.4 4MU/hr/mg | WBC α-Gal A Activity (males only), change from baseline, mean ± SE [5, 15]: +1.6 ± 1.5 4MU/hr/mg | WBC α-Gal A Activity (males only), change from baseline, mean ± SE [5, 16]: +4.0 ± 3.0 4MU/hr/mg | WBC α-Gal A Activity (males only), change from baseline, mean ± SE [5, 17]: 5.2 4MU/h/mg | change in kidney interstitial capillary GL-3 inclusions ([6]; baseline to month 6, eGFR<60 mL/min/1.73 m^2, n=3): −0.39 | change in kidney interstitial capillary GL-3 inclusions ([6]; baseline to month 6, eGFR≥60 mL/min/1.73 m^2, n=22): −0.30 | binding to the active site of wild-type α-Gal A and specific mutant forms of α-Gal A [7]: high affinity | LVMi, change from baseline, mean ± SE [8, 14]: −5.5 ± 10.0 gm^2 | LVMi, change from baseline, mean ± SE [8, 15]: −9.2 ± 5.8 gm^2 | LVMi, change from baseline, mean ± SE [8, 16]: −21.0 ± 14.1 gm^2 | LVMi, change from baseline, mean ± SE [8, 17]: −3.2 ± 5.6 gm^2 | Plasma lyso-Gb3, change from baseline, mean ([9]; renal subgroup 30 to < 60): +0.5 nmol/L | Plasma lyso-Gb3, change from baseline, mean ([9]; renal subgroup ≥60): 1.9 nmol/L | Comparison to ERT-Naïve Study PK (migalastat concentration) ([10]; Pre-dose (0 h)): 8.70 ng/mL | concentration at 3 h ([10]; human, plasma, 3 Hrs Post): 1180 ng/mL | concentration at 48 h ([10]; human, plasma, 48 h): 8.7 ng/mL | Annualized eGFRCKD-EPI Change Rate, Mean (SE) [11, 18]: −0.3 (1.0) mL/min/1.73 m^2 | Annualized eGFRCKD-EPI Change Rate, Mean (SE) [11, 19]: −0.9 (0.4) mL/min/1.73 m^2 | Annualized eGFRCKD-EPI Change Rate, Mean (SE) [11, 20]: −2.2 (1.3) mL/min/1.73 m^2 | Annualized eGFRCKD-EPI Change Rate, Mean (SE) [11, 21]: 0.2 (0.8) mL/min/1.73 m^2 | Annualized eGFRCKD-EPI Change Rate, Mean (SE) [11, 22]: 0.4 (1.0) mL/min/1.73 m^2 | Annualized eGFRCKD-EPI Change Rate, Mean (SE) [11, 23]: −5.1 (0.1) mL/min/1.73 m^2 | Annualized eGFR Rate of Change (eGFRMDRD), Mean (SEM) [11, 18]: 1.3 (1.5) mL/min/m^2 | Annualized eGFR Rate of Change (eGFRMDRD), Mean (SEM) [11, 19]: −0.9 (0.5) mL/min/m^2 | Annualized eGFR Rate of Change (eGFRMDRD), Mean (SEM) [11, 20]: −1.7 (1.1) mL/min/m^2 | Annualized eGFR Rate of Change (eGFRMDRD), Mean (SEM) [11, 21]: 0.9 (1.0) mL/min/m^2 | Annualized eGFR Rate of Change (eGFRMDRD), Mean (SEM) [11, 22]: 1.2 (1.2) mL/min/m^2 | Annualized eGFR Rate of Change (eGFRMDRD), Mean (SEM) [11, 23]: −4.3 (0.1) mL/min/m^2 | LVMi, change from baseline, mean ± SE ([12]; renal subgroup 30 to < 60): −10.2 ± 2.4 gm^2 | LVMi, change from baseline, mean ± SE ([12]; renal subgroup ≥60): −4.8 ± 2.3 gm^2
